Key:
in vitro = details: human, liver microsomes
Description: Stability in human liver microsomes assessed as half life

in vivo [1] = details: beagle, dog, iv, 0.4 mg/kg
Description: Clearance in beagle dog at 0.4 mg/kg, iv administered as cassette dosing by LC-MS/MS method

in vivo [2] = details: beagle, dog, iv, 0.4 mg/kg; remark: listed apart in the source
Description: Volume of distribution at steady state in beagle dog at 0.4 mg/kg, iv cassette dosing by LC-MS/MS method

in vivo [3] = details: beagle, dog, iv, 0.4 mg/kg; remark: listed apart in the source
Description: Half life in beagle dog at 0.4 mg/kg, iv cassette dosing by LC-MS/MS method

in vivo [4] = details: beagle, dog, iv, 0.4 mg/kg; remark: listed apart in the source
Description: Total AUC in beagle dog at 0.4 mg/kg, iv administered as cassette dosing by LC-MS/MS method

| SMILES | half-life (in vitro) [h] | clearance (in vivo [1]) [mL/min/kg] | Vd (in vivo [2]) [L/kg] | half-life (in vivo [3]) [h] | AUC (in vivo [4]) [µM·h] |
| --- | --- | --- | --- | --- | --- |
| COC(=O)Nc1cccc(NC(=O)[C@H](Cc2ccccc2)NC(=O)/C=C/c2cc(Cl)ccc2-n2cnnn2)c1 | > 1.67 | – | – | – | – |
| O=C(/C=C/c1cc(Cl)ccc1-n1cnnn1)N[C@@H](Cc1ccccc1)C(=O)Nc1ccc(-n2cnnn2)cc1 | > 1.67 | – | – | – | – |
| O=C(/C=C/c1cc(Cl)ccc1-n1cnnn1)N[C@@H](Cc1ccccc1)C(=O)Nc1ccc(C(=O)O)cc1 | > 2 | 16 | 0.5 | 0.6 | 0.396 |
| O=C(/C=C/c1cc(Cl)ccc1-n1cnnn1)N[C@@H](Cc1ccccc1)C(=O)Nc1ccc(-c2nc[nH]n2)cc1 | > 1.67 | – | – | – | – |
